Results as given in patent publication US20240002416A1 (Rheinische-Friedrich-Wilhelms-Universität Bonn, priority 2020, published 2024).

Key:
human MRGPRX4-83L [1] = target: T1, human MRGPRX4-83L (Homo sapiens, UniProt Q96LA9); test: β-arrestin assay (CHO β-arrestin ARMS1-ProLink 2 human MRGPRX4 83L); type: cell-based
T1 construct: host or cells: CHO β-arrestin cells
Summary of the method: (§1)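 CHO cells, recombinant hMRGPRX4 → β-arrestin recruitment via β-gal complementation. Ca mobilization → recombinant astrocytes (83L) or native LN229 cells (83S).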

human MRGPRX4-83L [2] = target: T1, human MRGPRX4-83L; test: Calcium assay (human MRGPRX4 83L), recombinant astrocytes; type: cell-based
Summary of the method: as §1

MRGPRX4-83S [3] = target: T2, MRGPRX4-83S (Homo sapiens, UniProt Q96LA9, L83S); test: β-arrestin assay (CHO β-arrestin human MRGPRX4-83S); type: cell-based; design: host or cells: CHO β-arrestin cells
T2 sequence (Q96LA9 whole entry L83S): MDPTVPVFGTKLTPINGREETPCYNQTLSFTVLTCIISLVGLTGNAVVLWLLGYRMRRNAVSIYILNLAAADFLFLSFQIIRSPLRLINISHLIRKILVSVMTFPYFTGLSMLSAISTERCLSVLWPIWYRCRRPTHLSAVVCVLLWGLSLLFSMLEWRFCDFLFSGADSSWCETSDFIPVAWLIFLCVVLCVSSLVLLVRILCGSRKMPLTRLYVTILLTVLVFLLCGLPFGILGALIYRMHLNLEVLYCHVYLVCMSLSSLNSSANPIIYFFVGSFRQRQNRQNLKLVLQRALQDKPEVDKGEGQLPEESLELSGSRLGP
Summary of the method: as §1

MRGPRX4-83S [4] = target: T2, MRGPRX4-83S; test: Calcium assay (human glioblastoma LN229 cells expressing the MRGPRX4-83S); type: cell-based; design: LN229 glioblastoma cells natively expressing the MRGPRX4-83S; endogenous in cells; host or cells: LN229 human glioblastoma cells; conditions: for Emax: LN-229
Summary of the method: as §1

[5] = Table 1, efficacy based on maximal effect of 100 nM B-16 (set as 100%), read-out: Emax
[6] = Table 1, β-arrestin recruitment, CHO cells, MRGPRX4-83L, means of 3-4 experiments, read-out: EC50 ± SEM
[7] = Table 1, calcium mobilization, MRGPRX4-83L, read-out: EC50 ± SEM
[8] = Table 1, efficacy based on maximal effect of 1 μM B-16 (set as 100%), read-out: Emax
[9] = Table 2, efficacy based on 100 nM B-16 (set as 100%), read-out: Emax
[10] = Table 2, β-arrestin recruitment, CHO cells, MRGPRX4-83S, read-out: EC50 ± SEM
[11] = Table 2, efficacy based on 30 μM H-1 (set as 100%), read-out: Emax
[12] = Table 2, calcium mobilization, LN229 cells, MRGPRX4-83S, read-out: EC50 ± SEM
[13] = Table 4, efficacy based on maximal effect of 100 nM B-16 (set as 100%), read-out: Emax
[14] = Table 4, β-arrestin recruitment, CHO cells, MRGPRX4-83L, read-out: EC50 ± SEM
[15] = Table 4, calcium mobilization, MRGPRX4-83L, read-out: EC50 ± SEM
[16] = Table 4, efficacy based on maximal effect of 1 μM B-16 (set as 100%), read-out: Emax
[17] = Table 3, efficacy based on 100 nM B-16 (set as 100%), read-out: Emax
[18] = Table 3, β-arrestin recruitment, CHO cells, MRGPRX4-83S, read-out: EC50 ± SEM
[19] = Table 3, efficacy based on 30 μM H-1 (set as 100%), read-out: Emax
[20] = Table 3, calcium mobilization, LN229 cells, MRGPRX4-83S, read-out: EC50 ± SEM

T1 sequence (Q96LA9 whole entry): as the sequence (Q96LA9 whole entry L83S) above, with S83L counted along it

SMILES | Emax (human MRGPRX4-83L [1]; [5]) | EC50 (human MRGPRX4-83L [1]; [6]) | EC50 (human MRGPRX4-83L [2]; [7]) | Emax (human MRGPRX4-83L [2]; [8]) | melting point | Emax (MRGPRX4-83S [3]; [9]) | EC50 (MRGPRX4-83S [3]; [10]) | Emax (MRGPRX4-83S [4]; [11]) | EC50 (MRGPRX4-83S [4]; [12]) | Emax (human MRGPRX4-83L [1]; [13]) | EC50 (human MRGPRX4-83L [1]; [14]) | EC50 (human MRGPRX4-83L [2]; [15]) | Emax (human MRGPRX4-83L [2]; [16]) | Emax (MRGPRX4-83S [3]; [17]) | EC50 (MRGPRX4-83S [3]; [18]) | Emax (MRGPRX4-83S [4]; [19]) | EC50 (MRGPRX4-83S [4]; [20]) | further results
C#CCn1c(=O)c2[nH]c(CCc3cccc(Br)c3)nc2n(CCCCP(=O)(O)O)c1=O [B-4, (4-(8-(3-Bromophenethyl)-2,6-dioxo-1-(prop-2-yn-1-yl)-1,2,6,7-tetrahydro-3H-purin-3-yl)butyl)phosphonic acid] | 103% | 2140 ± 850 nM | 80.8 ± 16.8 nM | 100% | 240 to 242 °C | 110% | 3.24 ± 1.16 nM | 109% | 4.69 ± 1.58 nM |  |  |  |  |  |  |  |  | 
C#CCn1c(=O)c2c(nc(CCc3ccccc3Br)n2CC2CCCCC2)n(CCCCP(=O)(O)O)c1=O [B-36, (4-(8-(2-Bromophenethyl)-7-(cyclohexylmethyl)-2,6-dioxo-1-(prop-2-yn-1-yl)-1,2,6,7-tetrahydro-3H-purin-3-yl)butyl)phosphonic acid] |  |  |  |  | 143 to 145 °C |  |  |  |  | 95% | 1250 ± 410 nM | 25.2 ± 3 nM | 109% | 84% | 4.28 ± 0.83 nM | 112% | 0.787 ± 0.164 nM | 
C#CCn1c(=O)c2c(nc(CCc3c(Cl)cccc3Cl)n2CC)n(CCCCP(=O)(O)O)c1=O [B-34, (4-(8-(2,6-Dichlorophenethyl)-7-ethyl-2,6-dioxo-1-(prop-2-yn-1-yl)-1,2,6,7-tetrahydro-3H-purin-3-yl)butyl)phosphonic acid] |  |  |  |  | 207 to 209 °C |  |  |  |  | 95% | 9.02 ± 1.49 nM | 2 ± 0.94 nM | 97% | 110% | 0.146 ± 0.033 nM | 104% | 0.363 ± 0.109 nM | 
C#CCn1c(=O)c2c(nc(CCc3ccccc3Br)n2CCCl)n(CCCCP(=O)(O)O)c1=O [B-50, (4-(8-(2-Bromophenethyl)-7-(2-chloroethyl)-2,6-dioxo-1-(prop-2-yn-1-yl)-1,2,6,7-tetrahydro-3H-purin-3-yl)butyl)phosphonic acid] |  |  |  |  | 197 to 199 °C |  |  |  |  |  |  |  |  |  |  |  |  | EC50 (human MRGPRX4-83L [1]): 24.3 ± 3.2 nM; Emax (human MRGPRX4-83L [1]): 91%; EC50 (human MRGPRX4-83L [2]): 2.28 ± 0.75 nM; Emax (human MRGPRX4-83L [2]): 118%; EC50 (MRGPRX4-83S [3]): 0.301 ± 0.021 nM; Emax (MRGPRX4-83S [3]): 84%; EC50 (MRGPRX4-83S [4]): 0.095 ± 0.0427 nM; Emax (MRGPRX4-83S [4]): 111%
C#CCn1c(=O)c2[nH]c(CCc3cccc(F)c3)nc2n(CCCCP(=O)(O)O)c1=O [B-3, (4-(8-(3-Fluorophenethyl)-2,6-dioxo-1-(prop-2-yn-1-yl)-1,2,6,7-tetrahydro-3H-purin-3-yl)butyl)phosphonic acid] | 89% | 7940 ± 1450 nM | 601 ± 103 nM | 110% | 154 to 156 °C | 93% | 33.9 ± 5.1 nM | 118% | 63.1 ± 18.6 nM |  |  |  |  |  |  |  |  | 
C#CCn1c(=O)c2[nH]c(CCc3cccc(OC)c3)nc2n(CCCCP(=O)(O)OCC)c1=O [D-3, Ethyl hydrogen (4-(8-(3-methoxyphenethyl)-2,6-dioxo-1-(prop-2-yn-1-yl)-1,2,6,7-tetrahydro-3H-purin-3-yl)butyl)phosphonate] | 112% | 407 ± 710 nM | 36.3 ± 1.8 nM | 114% | 118 to 120 °C | 110% | 5.8 ± 1.41 nM | 111% | 2.65 ± 0.72 nM |  |  |  |  |  |  |  |  | 
C#CCn1c(=O)c2c(nc(CCc3ccccc3Br)n2C(C)C)n(CCCCP(=O)(O)O)c1=O [B-46, (4-(8-(2-Bromophenethyl)-7-isopropyl-2,6-dioxo-1-(prop-2-yn-1-yl)-1,2,6,7-tetrahydro-3H-purin-3-yl)butyl)phosphonic acid] |  |  |  |  | 109 to 111 °C |  |  |  |  | 116% | 13.6 ± 6.1 nM | 0.684 ± 0.073 nM | 108% | 91% | 0.075 ± 0.0184 nM | 109% | 0.79 ± 0.262 nM | 
C#CCn1c(=O)c2[nH]c(CCc3ccccc3OC)nc2n(CCCCP(=O)(O)O)c1=O [B-7, (4-(8-(2-Methoxyphenethyl)-2,6-dioxo-1-(prop-2-yn-1-yl)-1,2,6,7-tetrahydro-3H-purin-3-yl)butyl)phosphonic acid] | 103% | 3120 ± 1200 nM | 397 ± 32 nM | 108% | 169 to 172 °C | 101% | 8.94 ± 1.38 nM | 132% | 10.3 ± 1.3 nM |  |  |  |  |  |  |  |  | 
